Reference: patent US6479461B1, “Use of alkylmonoglucosides as molecular vectors” (Ulice, priority 1997, dated 2002)
Where two headings read alike, the source gives them in different places.

Key:
[1] = tested on: skin model: epidermis reconstituted from keratinocytes on a matrix of collagen; test: MTT dosage on skin model (cytotoxicity)
Source text: We have quantified and compared in vitro, the cytotoxicity of lactic acid and of lactate of α-butylglucoside on a skin model. This skin model is made up of a matrix of collagen on which rests an epidermis reconstituted from keratinocytes and presenting a similar architecture to that of the human epidermis. The transformation of tetrazolium salt (MTT) in blue crystals of Formozan is proportional to the activity of the dehydrogenase succinate, (a mitochondrial enzyme). As a consequence, the more the epidermis contains living cells, the larger the transformation by the dehydrogenase succinate of the MTT in blue Formozan crystals will be. The quantity of Formozan is measured in the spectrophotometer. The cellular viability, carried out to determine the toxicity of the product, is calculated according to the formula:
% viability=OD produced/OD cellular control×100
The cellular control is carried out without issue. A reference tensioactive SDS (Sodium Dodecyl Sulphate) at 1.5 mg/ml is equally tested as a cytotoxic control.
If the cellular viability is between 70 and 50%, the products are considered as slightly cytotoxic.
If it is lower than 50%, the products are considered as cytotoxic.

[2] = tested on: corneas from abattoir beef carcasses
Source text: The BCOP test (bovine corneal opacity and permeability) makes it possible to evaluate the ocular irritation indice in vitro on corneas from abattoir beef carcasses. It measures two parameter of ocular irritation: the opacity and cellular permeability.
The opacity is defined as the difference of light transmission between a treated cornea and a control cornea. The permeability is equal to the optical density (OD) measured in a spectrophotometer at 490 nm.
The irritation score in vitro is established by using the following formula:
Score in vitro=opacity value+[…] the value of OD.
The objective values are combined and the scores of ocular irritation in vitro are compared to an irritation scale previously established. In general, the irritant potential is classed in three categories weak (0 to 25), moderate (25.1 to 55) and severe (55.1 and +).

[3] = SDS at 1-5 mg/ml, MTT, skin model

CCCCO[C@H]1O[C@H](COC(=O)C(C)O)[C@@H](O)[C@H](O)[C@H]1O (stereo partly drawn) [Lactate of α-butylglucoside, Lactic Ester of α-Butylglucoside]
% viability in comparison to the control [1]: 74.5% | Average (optical density at 540 nm) [1]: 0.255 | OD trial 1 (optical density at 540 nm) [1]: 0.242 | OD trial 2 (optical density at 540 nm) [1]: 0.265 | cytotoxicity class [1]: not cytotoxic | irritancy compared with lactic acid [1]: less irritant than lactic acid

CCCCCCCCCCCCOS(=O)(=O)[O-].[Na+] [SDS, Sodium Dodecyl Sulphate]
% viability in comparison to the control [1, 3]: 14.8% | Average (optical density at 540 nm) [1, 3]: 0.051 | OD trial 1 (optical density at 540 nm) [1, 3]: 0.046 | OD trial 2 (optical density at 540 nm) [1, 3]: 0.056

CCCCO[C@H]1O[C@H](CO)[C@@H](O)[C@H](O)[C@H]1O [α-butylglucoside, n-butyl-α-D-monoglucopyranose]
ocular irritation category [2]: non-irritant | miscibility with saturated and unsaturated acids (in a melted medium): miscible in all proportions | Solubility at 20° C. (solvent: Acetonitrile): 50 % (p/p) | Solubility at 20° C. (solvent: Dichloromethane): 70 % (p/p) | Solubility at 20° C. (solvent: Dioxane): 70 % (p/p) | Solubility at 20° C. (solvent: Ethanol (95/96%)): 70 % (p/p) | Solubility at 20° C. (solvent: Glycerol): 70 % (p/p) | Solubility at 20° C. (solvent: Polyethylene glycol 200): 70 % (p/p) | Solubility at 20° C. (solvent: Propylene glycol): 70 % (p/p) | Solubility at 20° C. (solvent: Water): 60 % (p/p)

CC(O)C(=O)O (stereo not shown) [Lactic acid, lactic acid]
% viability in comparison to the control ([1]; 5 %): 16% | Average (optical density at 540 nm) ([1]; 5 %): 0.055 | OD trial 1 (optical density at 540 nm) ([1]; 5 %): 0.044 | OD trial 2 (optical density at 540 nm) ([1]; 5 %): 0.066 | ocular irritation category [2]: moderately irritant
